Holding throughout (assay type): in vivo
In one test the test system is Veronica persica (VERPE). The test can be described thus: Herbicidal pre-emergence action, VERPE. The text has this: (§1) Seeds of mono- and dicotyledonous weed plants were sown in plastic pots (double sowings with one species of mono- and one species of dicotyledonous weed plants per pot), in sandy loam, and covered with soil. The compounds according to the invention, formulated in the form of wettable powders (WP) or as emulsifiable concentrates (EC), were applied to the surface of the covering soil as an aqueous suspension or as an emulsion, with the addition of 0.5% of an additive, at an application rate of 600 litres of water per hectare (converted). Following treatment, the pots were placed in a greenhouse and kept under optimum growth conditions for the test plants. The visual grading of the damage to the test plants is carried out after ca. 3 weeks in comparison to untreated controls (herbicidal effect in percent (%): 100% effect=plants have died, 0% effect=as control plants). Seeds of mono- and dicotyledonous weed plants were sown in plastic pots (double sowings with one species of mono- and one species of dicotyledonous weed plants per pot), in sandy loam, and covered with soil. The compounds according to the invention, formulated in the form of wettable powders (WP) or as emulsifiable concentrates (EC), were applied to the surface of the covering soil as an aqueous suspension or as an emulsion, with the addition of 0.5% of an additive, at an application rate of 600 litres of water per hectare (converted). Following treatment, the pots were placed in a greenhouse and kept under optimum growth conditions for the test plants. The visual grading of the damage to the test plants is carried out after ca. 3 weeks in comparison to untreated controls (herbicidal effect in percent (%): 100% effect=plants have died, 0% effect=as control plants).

Another test relates to Kochia scoparia (KCHSC). The test can be described thus: Herbicidal post-emergence action, KCHSC. The text has this: Seeds of mono- and dicotyledonous weed plants were sown in plastic pots (double sowings with one species of mono- and one species of dicotyledonous weed plants per pot), in sandy loam, covered with soil and grown under controlled growth conditions. 2 to 3 weeks after sowing, the test plants were sprayed in the single-leaf stage. The compounds according to the invention, formulated in the form of wettable powders (WP) or as emulsifiable concentrates (EC), were sprayed onto the green plant parts as an aqueous suspension or as an emulsion, with the addition of 0.5% of an additive, at an application rate of 600 litres of water per hectare (converted). The test plants were placed in the greenhouse for ca. 3 weeks under optimum growth conditions, and then the effect of the preparations is assessed visually in comparison with untreated controls (herbicidal effect in percent (%): 100% effect=plants have died, 0% effect=as control plants). […]

The test system of test [1] is Digitaria sanguinalis (DIGSA). The test can be described thus: Herbicidal pre-emergence action, DIGSA.
Text: as §1

A further test deals with Lolium rigidum (LOLRI). The test can be described thus: Herbicidal pre-emergence action, LOLRI.
Text: as §1

The subject of another test is Setaria viridis (SETVI). The test can be described thus: Herbicidal pre-emergence action, SETVI.
Text: as §1

The next test relates to Poa annua (POAAN). Nature of the test: Herbicidal pre-emergence action, POAAN.
Text: as §1

Test [2] deals with Abutilon theophrasti (ABUTH). The test can be described thus: Herbicidal post-emergence action, ABUTH. The note with it: 1280 g/ha, assessed visually after ca. 3 weeks vs untreated controls (Table B1). The text has this:
(§2) Seeds of mono- and dicotyledonous weed plants were sown in plastic pots (double sowings with one species of mono- and one species of dicotyledonous weed plants per pot), in sandy loam, covered with soil and grown under controlled growth conditions. 2 to 3 weeks after sowing, the test plants were sprayed in the single-leaf stage. The compounds according to the invention, formulated in the form of wettable powders (WP) or as emulsifiable concentrates (EC), were sprayed onto the green plant parts as an aqueous suspension or as an emulsion, with the addition of 0.5% of an additive, at an application rate of 600 litres of water per hectare (converted). The test plants were placed in the greenhouse for ca. 3 weeks under optimum growth conditions, and then the effect of the preparations is assessed visually in comparison with untreated controls (herbicidal effect in percent (%): 100% effect=plants have died, 0% effect=as control plants).

The subject of test [3] is Alopecurus myosuroides (ALOMY). Nature of the test: Herbicidal post-emergence action, ALOMY. Particulars: 1280 g/ha, assessed visually after ca. 3 weeks vs untreated controls (Table B2).
Text: as §2

For test [4], the system named is Alopecurus myosuroides (ALOMY). The test can be described thus: Herbicidal pre-emergence action, ALOMY. The note with it: 1280 g/ha, visual grading after ca. 3 weeks vs untreated controls (Table A12). The text has this: Seeds of mono- and dicotyledonous weed plants were sown in plastic pots (double sowings with one species of mono- and one species of dicotyledonous weed plants per pot), in sandy loam, and covered with soil. The compounds according to the invention, formulated in the form of wettable powders (WP) or as emulsifiable concentrates (EC), were applied to the surface of the covering soil as an aqueous suspension or as an emulsion, with the addition of 0.5% of an additive, at an application rate of 600 litres of water per hectare (converted). Following treatment, the pots were placed in a greenhouse and kept under optimum growth conditions for the test plants. The visual grading of the damage to the test plants is carried out after ca. 3 weeks in comparison to untreated controls (herbicidal effect in percent (%): 100% effect=plants have died, 0% effect=as control plants).

Test [5] concerns Digitaria sanguinalis (DIGSA). Nature of the test: Herbicidal post-emergence action, DIGSA. The note with it: 1280 g/ha, assessed visually after ca. 3 weeks vs untreated controls (Table B12).
Text: as §2

[6] abbreviates: 320 g/ha, visual grading after ca. 3 weeks vs untreated controls (Table C7).
[7] abbreviates: 1280 g/ha, visual grading after ca. 3 weeks vs untreated controls (Table A10).
The mark [8] stands for this setting: 320 g/ha, assessed visually after ca. 3 weeks vs untreated controls (Table D1).
Where [9] appears, read: 1280 g/ha, assessed visually after ca. 3 weeks vs untreated controls (Table B4).
[10] abbreviates: 1280 g/ha, visual grading after ca. 3 weeks vs untreated controls (Table A2).
Setting [11] is: 320 g/ha, visual grading after ca. 3 weeks vs untreated controls (Table C2).
[12] abbreviates: 1280 g/ha, visual grading after ca. 3 weeks vs untreated controls (Table A5).
[13] abbreviates: 320 g/ha, visual grading after ca. 3 weeks vs untreated controls (Table C5).
Where [14] appears, read: 1280 g/ha, visual grading after ca. 3 weeks vs untreated controls (Table A8).
Setting [15] is: 320 g/ha, visual grading after ca. 3 weeks vs untreated controls (Table C4).
[16] abbreviates: 1280 g/ha, visual grading after ca. 3 weeks vs untreated controls (Table A7).

The structures appear in SMILES notation.

Take `O=C(Nc1ncns1)c1c(C2CC2)ccnc1Cl` [Example I-003, 2-chloro-4-cyclopropyl-N-(1,2,4-thiadiazol-5-yl)pyridine-3-carboxamide]: the “herbicidal effect in percent, VERPE” value in the test on Veronica persica (VERPE) (setting [6]) and in the test with Veronica persica (VERPE) (setting [7]) was 90% each time. For the same compound, the entries for the “herbicidal effect in percent, KCHSC” value in the test with Kochia scoparia (KCHSC) (setting [8]) and with Kochia scoparia (KCHSC) (setting [9]) were 90% and 100%, respectively. Also, the “herbicidal effect in percent, DIGSA” value in [1] (setting [10]) is 90%. Besides, the “herbicidal effect in percent, LOLRI” value in the test with Lolium rigidum (LOLRI) (setting [11]) and in the test on Lolium rigidum (LOLRI) (setting [12]) was 90% each time. The “herbicidal effect in percent, SETVI” value in the test on Setaria viridis (SETVI) (setting [13]) and with Setaria viridis (SETVI) (setting [14]) was 100% each time. The “herbicidal effect in percent, POAAN” value in the test on Poa annua (POAAN) (setting [15]) is given as 90%; with Poa annua (POAAN) (setting [16]) it was 100%. In addition, the “herbicidal effect in percent, ABUTH” value in test [2] is 90%.
As to `O=C(Nc1ncns1)c1c(C2CC2)ccnc1F` [Example I-005], the “herbicidal effect in percent, VERPE” value with Veronica persica (VERPE) (setting [6]) is listed as 90%; in the test on Veronica persica (VERPE) (setting [7]), 100%. Also, the figures for the “herbicidal effect in percent, ALOMY” value in test [3] and in test [4] were 90% and 100%, respectively. Moreover, the “herbicidal effect in percent, KCHSC” value in the test with Kochia scoparia (KCHSC) (setting [8]) and with Kochia scoparia (KCHSC) (setting [9]) was 100% in each case. Besides, the “herbicidal effect in percent, DIGSA” value in test [1] (320 g/ha, visual grading after ca. 3 weeks vs untreated controls (Table C10)) was determined as 90%; in test [1] (setting [10]) it was 90%; in test [5], 100%. In addition, the “herbicidal effect in percent, LOLRI” value in the test on Lolium rigidum (LOLRI) (setting [11]) and with Lolium rigidum (LOLRI) (setting [12]) was 100% in each case. Further, the “herbicidal effect in percent, SETVI” value in the test on Setaria viridis (SETVI) (setting [13]) and with Setaria viridis (SETVI) (setting [14]) was 100% each time. Moreover, the “herbicidal effect in percent, POAAN” value in the test with Poa annua (POAAN) (setting [15]) and with Poa annua (POAAN) (setting [16]) was 100% throughout.
Turning to `O=C(Nc1nc(Cl)ns1)c1c(C2CC2)ccnc1Cl` [Example I-013], the “herbicidal effect in percent, VERPE” value in the test on Veronica persica (VERPE) (setting [7]) stood at 90%. Further, in test [3], the “herbicidal effect in percent, ALOMY” value is 90%. In the test on Lolium rigidum (LOLRI) (setting [12]), the “herbicidal effect in percent, LOLRI” value was determined as 90%. Besides, in [2], the “herbicidal effect in percent, ABUTH” value was found to be 90%.

These data come from US20240352010A1, “SUBSTITUTED 1,2,4-THIADIAZOLYL NICOTINAMIDES, SALTS OR N-OXIDES THEREOF AND THEIR USE AS HERBICIDALLY ACTIVE SUBSTANCES” (BayerAktiengesellschaft, priority 2021, published 2024).
